Tests used:
[1] = molecular target: T1, hNav1.1 (Homo sapiens, UniProt P35498); experiment: Two-electrode voltage-clamp recording of hNav1.1 gating in Xenopus oocytes; assay type: cell-based; conditions: for effect on hNav1.1 persistent current / effect on hNav1.1 opening (G-V relationship): 100 μM; for effect on hNav1.1 persistent current: analyzed at the end of a 50 ms test pulse; for effect on hNav1.1 opening (G-V relationship): significance at p<0.005; for Activation (V1/2): hNav1.1 + β1 in Xenopus oocytes, ≤1% DMSO, DMSO control −38.2 ± 1.9 mV; for Activation (V1/2) / Inactivation (V1/2): 100 μM drug; for Inactivation (V1/2): hNav1.1, steady-state inactivation, DMSO control −49.4 ± 0.3 mV
T1 construct: host or cells: Xenopus oocytes (cRNA injection)

[2] = tested on: 6 Hz psychomotor seizures in male Crl:CF1 mice; experiment: 6 Hz psychomotor seizure induction; assay type: in vivo, mouse; conditions: 17 mA
Experimental: (§1) Animal husbandry and drug administration. Male Crl:CF1 mice (10-12 weeks old, Charles River) were housed under a 12 hour light-dark cycle with free access to food and water and all experiments were carried out between 10 am and 4 pm. 1-[phenyl-methyl]-1H-1,2,3-triazole-4-carboxamide-5-methyl (Compound B) (Sigma Aldrich) was suspended in a 40% solution of cyclodextrin (Sigma Aldrich) in sterile saline (0.9%) and 15 minutes prior to each seizure induction paradigm, 75 mg/kg of compound B was administered via intraperitoneal injection (ip) injection. Vehicle treated animals were similarly administrated 40% cyclodextrin and served as the controls for each experiment. The Emory University Institutional Animal Care and Use Committee approved all experimental protocols involving mice.
6 Hz psychomotor seizure induction. Topical anesthetic (0.5% tetracaine hydrochloride ophthalmic solution) was applied to the cornea 30 minutes before testing. Fifteen minutes prior to seizure induction, mice were administrated vehicle or compound B (n=12 per group). Each mouse was manually restrained and corneal stimulation (0.2 ms pulse, 6 Hz, 3s) was performed at a current intensity of 17 mA (ECT Unit 57800; Ugo Basile, Comerio Italy). […] The mice were randomized into two groups and in the first trial one group received the vehicle whereas the other was administered compound B. The second trial was performed one week later with each group receiving the opposite treatment.
(§2) Statistical analysis. A Student's t-test was used to identify statistically significant differences in latencies between vehicle- and compound B-treated groups for each seizure phenotype following administration of flurothyl and picrotoxin. […] All data are presented as the mean±s.e.m.; p values<0.05 were considered significant.

[3] = tested on: picrotoxin-induced seizures in male Crl:CF1 mice; experiment: Picrotoxin seizure induction; assay type: in vivo, mouse
Experimental: as §1
Seizure induction paradigms and analyses. Picrotoxin seizure induction—15 minutes prior to i.p. injection of picrotoxin (10 mg/kg, Sigma Aldrich), mice were administered vehicle or compound B (n=12 per group). Latencies to the first myoclonic jerk, forelimb clonus, and generalized tonic-clonic seizure were compared between compound B and vehicle-treated mice. The myoclonic jerk is characterized by a sudden jerk of the upper body whereas forelimb clonus involves rapid movement of the forelimbs for at least 5s. Finally, the generalized tonic-clonic seizure involves the loss of postural control with rapid movement of the limbs for at least 5s.
as §2

[4] = molecular target: T2, hNav1.6 (Homo sapiens, UniProt Q9UQD0); experiment: Two-electrode voltage-clamp recording of hNav1.6 gating in Xenopus oocytes; assay type: cell-based; conditions: for Activation (V1/2): hNav1.6, 100 μM drug, DMSO control −26.7 ± 1.1 mV; for Inactivation (V1/2): hNav1.6, steady-state inactivation, 100 μM drug, DMSO control −65.1 ± 0.8 mV
T2 construct: host or cells: Xenopus oocytes (cRNA injection)

[5] = molecular target: T3, hNav1.3 (Homo sapiens, UniProt Q9NY46); experiment: Two-electrode voltage-clamp recording of hNav1.3 gating in Xenopus oocytes; assay type: cell-based; conditions: for Activation (V1/2): hNav1.3, 100 μM drug, DMSO control −24.7 ± 1.6 mV; for Inactivation (V1/2): hNav1.3, steady-state inactivation, 100 μM drug, DMSO control −52.8 ± 0.9 mV
T3 construct: host or cells: Xenopus oocytes (cRNA injection)

[6] = molecular target: T4, hNav1.2 (Homo sapiens, UniProt Q99250); experiment: Two-electrode voltage-clamp recording of hNav1.2 gating in Xenopus oocytes; assay type: cell-based; conditions: for Activation (V1/2): hNav1.2, 100 μM drug, DMSO control −31.7 ± 1.2 mV; for Inactivation (V1/2): hNav1.2, steady-state inactivation, 100 μM drug, DMSO control −59.7 ± 0.4 mV
T4 construct: host or cells: Xenopus oocytes (cRNA injection)

[7] = tested on: flurothyl-induced seizures in male Crl:CF1 mice; experiment: Flurothyl seizure induction; assay type: in vivo, mouse; conditions: 75 mg/kg ip
Experimental: as §1
Flurothyl Seizure induction. Latencies to flurothyl-induced seizures were determined as previously described (Neurobiol Dis 49C, 211-220 (2012)). Briefly, flurothyl (2,2,2-trifluroethylether; Sigma Aldrich) was dispensed at a rate of 20 μl/minute into a Plexiglas chamber and latencies to three behavioral phenotypes were compared between vehicle-treated and compound B-treated (75 mg/kg) mice (n=12 per group): 1) the first myoclonic jerk, 2) a generalized tonic-clonic seizure, and 3) a generalized tonic-clonic seizure with tonic extension. Similar to picrotoxin-mediated seizure induction, the myoclonic jerk is the first observable behavioral phenotype followed by the generalized tonic-clonic seizure which is characterized by a loss of postural control with rapid movement of all four limbs for at least 5s. Lastly, the generalized tonic-clonic seizure with tonic hind limb extension involves the loss of postural control and rapid movement of all four limbs followed by downward extension of the limbs parallel to the body.
as §2

[8] = molecular target: T5, α1/β2/γ2 GABAA receptor (Homo sapiens, UniProt P14867+P18507+P47870); experiment: GABAA receptor activation in oocytes; assay type: cell-based; conditions: 100 μM, oocytes at −70 mV; 5 μM muscimol as positive control
T5 construct: expressed in transfected cells; host or cells: oocytes
T5 sequence (P14867 28-456): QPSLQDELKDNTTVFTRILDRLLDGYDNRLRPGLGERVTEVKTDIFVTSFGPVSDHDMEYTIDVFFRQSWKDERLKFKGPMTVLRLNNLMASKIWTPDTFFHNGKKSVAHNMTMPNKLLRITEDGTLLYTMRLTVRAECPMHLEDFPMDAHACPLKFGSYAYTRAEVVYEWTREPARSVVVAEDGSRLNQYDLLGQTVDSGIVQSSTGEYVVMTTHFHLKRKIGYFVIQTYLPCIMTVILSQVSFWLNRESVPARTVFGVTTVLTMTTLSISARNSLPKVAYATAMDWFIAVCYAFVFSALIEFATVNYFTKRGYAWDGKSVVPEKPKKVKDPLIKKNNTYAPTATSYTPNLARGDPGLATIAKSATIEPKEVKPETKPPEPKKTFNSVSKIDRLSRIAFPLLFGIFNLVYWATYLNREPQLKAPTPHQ
T5 sequence (P47870 25-512 limits assumed): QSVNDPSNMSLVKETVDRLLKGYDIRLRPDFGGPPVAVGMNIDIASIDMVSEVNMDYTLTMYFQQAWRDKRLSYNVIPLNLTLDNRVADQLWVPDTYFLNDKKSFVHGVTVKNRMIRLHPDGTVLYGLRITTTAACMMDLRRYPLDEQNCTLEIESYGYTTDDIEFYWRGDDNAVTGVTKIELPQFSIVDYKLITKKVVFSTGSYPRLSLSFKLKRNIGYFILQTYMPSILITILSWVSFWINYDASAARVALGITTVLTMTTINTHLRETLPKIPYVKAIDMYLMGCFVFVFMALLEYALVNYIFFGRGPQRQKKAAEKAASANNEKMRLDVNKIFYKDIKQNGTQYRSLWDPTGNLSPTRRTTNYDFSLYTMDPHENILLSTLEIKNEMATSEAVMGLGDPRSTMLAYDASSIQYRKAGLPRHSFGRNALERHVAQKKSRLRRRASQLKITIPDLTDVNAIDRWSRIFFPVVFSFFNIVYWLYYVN
T5 sequence (P18507 40-475): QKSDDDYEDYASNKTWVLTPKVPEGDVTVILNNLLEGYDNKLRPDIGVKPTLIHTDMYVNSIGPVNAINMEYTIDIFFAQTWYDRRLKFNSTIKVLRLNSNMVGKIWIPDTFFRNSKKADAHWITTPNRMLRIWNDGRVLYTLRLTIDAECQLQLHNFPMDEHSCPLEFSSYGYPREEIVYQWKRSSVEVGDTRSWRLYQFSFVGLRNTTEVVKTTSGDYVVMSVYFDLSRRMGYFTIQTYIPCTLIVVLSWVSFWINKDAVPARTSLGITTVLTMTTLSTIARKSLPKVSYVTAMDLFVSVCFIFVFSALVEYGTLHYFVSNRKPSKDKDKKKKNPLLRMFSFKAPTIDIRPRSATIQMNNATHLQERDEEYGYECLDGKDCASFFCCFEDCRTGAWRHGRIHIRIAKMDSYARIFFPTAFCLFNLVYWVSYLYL
Description: Oocytes were kept at −70 mV throughout the experiment.

[9] = tested on: rat hippocampal neurons; experiment: Action potential threshold recordings in hippocampal neurons; assay type: cell-based; conditions: 100 μM Compound B
Experimental: Action potential threshold recordings in hippocampal neurons. Hippocampal neurons were dissected from Sprague Dawley rat embryos at embryonic day 18. Cells were treated with papain (Worthington Biochemical), dissociated with a pipette and plated over coverslips coated with collagen (Life Technologies) and poly-D-Lysine (Sigma-Aldrich). Astrocyte beds were prepared at a density of 80,000 cells/ml and cultured in DMEM (Life Technologies) with 10% Fetal Bovine Serum, 6 mM glutamine for 14 days in 5% CO2 at 37° C. Total medium was changed every week. Neurons were plated over confluent astrocyte beds at a density of 150,000 cells/ml and cultured for 3 weeks in Neurobasal media (Life Technologies) supplemented with B27 and 2 mM glutaMAX. Half of the media was changed every 3-4 days. Cells were treated for 3 hours with compound B in 0.3% DMSO or control (media containing 0.3% DMSO) before recording. Coverslips were transferred to a chamber perfused at 2 ml/minute at 32° C. with ACSF containing (in mM): 140 NaCl, 5 KCl, 2 CaCl2, 2 MgCl2, 10 HEPES, and 10 Glucose (pH 7.3 adjusted with NaOH). […] Action potential thresholds were measured by a series of 100 ms, 10 pA depolarizing current injections. At the minimal current injection needed to elicit an action potential, firing threshold was determined by calculating the potential at which the rate of rise crossed 40 V/s, using AxoGraph X software. […]

[10] = cited from earlier work

NC(=O)c1nnn(Cc2cccc(F)c2)c1N [Compound A, 1-[(3-fluorophenyl)methyl]-1H-1,2,3-Triazole-4-carboxamide-5-amine]
effect on hNav1.1 persistent current [1]: neither of these compounds influences | effect on hNav1.1 opening (G-V relationship) [1]: clearly inhibit hNav1.1 opening | Activation (V1/2) [1]: −30.8 ± 1.0 mV | Inactivation (V1/2) [1]: −50.5 ± 1.2 mV

Cc1c(C(N)=O)nnn1Cc1ccccc1 [Compound B, 1-[phenyl-methyl]-1H-1,2,3-Triazole-4-carboxamide-5-methyl]
effect on hNav1.1 persistent current [1]: neither of these compounds influences | effect on hNav1.1 persistent current ([1]; listed as compound B): did not alter | effect on hNav1.1 opening (G-V relationship) [1]: clearly inhibit hNav1.1 opening | Activation (V1/2) [1]: −27.4 ± 1.0 mV | depolarizing shift in channel activation voltage ([1]; hNav1.1, 100 μM): ~+11 mV | Inactivation (V1/2) [1]: −49.4 ± 0.3 mV | Entry into SI (t) ([1]; hNav1.1 slow inactivation, time-dependence of entry, DMSO 5.6 ± 0.3 s): 5.5 ± 0.4 s | Voltage-dependence of SI (V), V1/2 ([1]; hNav1.1 slow inactivation, DMSO −43.7 ± 1.6 mV): −43.2 ± 1.3 mV | animals exhibiting behavioral seizures ([2]; 75 mg/kg ip, n=7/24, vehicle 92%): 29% | seizure severity (modified Racine scale) vs vehicle ([2]; p<0.0001): dramatically less severe | reduction in the number of mice exhibiting seizures ([2]; vs vehicle, p<0.0001): 63% | average latency to the first generalized tonic-clonic seizure (GTCS) ([3]; picrotoxin 10 mg/kg, Compound B 75 mg/kg ip 15 min before, vehicle 1006±106 s): 1693 ± 315 s | frequency of the behavioral seizures vs vehicle ([3]; picrotoxin, 75 mg/kg ip): no difference | increase of average latency to first GTCS vs vehicle ([3]; picrotoxin, 75 mg/kg ip, p=0.03): 41% | average latency to forelimb clonus (FC) vs vehicle ([3]; picrotoxin, 75 mg/kg ip, p=0.3): no statistically significant differences | average latency to the first myoclonic jerk (MJ) vs vehicle ([3]; picrotoxin, 75 mg/kg ip, p=0.4): no statistically significant differences | Activation (V1/2) [4]: −23.8 ± 1.9 mV | Inactivation (V1/2) [4]: −62.6 ± 0.7 mV | Activation (V1/2) [5]: −25.8 ± 1.4 mV | Inactivation (V1/2) [5]: −50.0 ± 0.8 mV | Activation (V1/2) [6]: −23.6 ± 1.1 mV | Inactivation (V1/2) [6]: −53.6 ± 1.2 mV | increase of average latency to GTCS+ vs vehicle ([7]; p<0.0001): 56% | increase of average latency to first GTCS vs vehicle ([7]; p<0.0001): 43% | average latency to the MJ vs vehicle ([7]; p=0.6): comparable | average latency to the first GTCS ([7]; vehicle 281±19 s): 652 ± 48 s | average latency to GTCS with hind limb extension (GTCS+) ([7]; vehicle 652±38 s): 1155 ± 89 s | activation of α1/β2/γ2 GABAA receptor (inward currents) [8]: do not activate | average action potential (firing) threshold ([9]; potential at which rate of rise crosses 40 V/s, control −43.3±2.4 mV): −27.8±1.6 mV | current injection needed to elicit an action potential ([9]; control 20 pA): 80 pA

OCc1cn(Cc2cccc(F)c2)nn1 [Compound C, 1-[(3-fluorophenyl)methyl]-1H-1,2,3-Triazole-4-hydroxymethyl]
effect on hNav1.1 opening (G-V relationship) [1]: no longer affects hNav1.1 opening | Activation (V1/2) [1]: −38.4 ± 1.3 mV | Inactivation (V1/2) [1]: −49.2 ± 0.6 mV

NC(=O)c1nnn(Cc2ccc(F)cc2)c1N [Compound D, 1-[(4-fluorophenyl)methyl]-1H-1,2,3-Triazole-4-carboxamide-5-amine]
effect on hNav1.1 opening (G-V relationship) [1]: not significant | Activation (V1/2) [1]: −32.5 ± 2.3 mV | Inactivation (V1/2) [1]: −49.8 ± 1.6 mV

NC(=O)c1cn(Cc2c(F)cccc2F)nn1 [Rufinamide, 1-[(2,6-difluorophenyl)methyl]-1H-1,2,3-Triazole-4-carboxamide, reference compound]
solubility in DMSO ([10]; DMSO): up to 9 mg/ml | solubility in water ([10]; water): slightly soluble | effect on hNav1.1 persistent current [1]: did not alter | effect on hNav1.1 opening (G-V relationship) [1]: dramatic depolarizing shift | Activation (V1/2) [1]: −30.6 ± 0.9 mV | Activation (V1/2) [4]: −28.1 ± 0.8 mV | alteration of the midpoint of hNav1.6 channel availability ([4]; hNav1.6, 100 μM rufinamide): about +5 mV | Inactivation (V1/2) [4]: −60.0 ± 0.7 mV | Activation (V1/2) [5]: −24.5 ± 2.4 mV | Inactivation (V1/2) [5]: −52.6 ± 1.6 mV | Activation (V1/2) [6]: −29.5 ± 1.2 mV | Inactivation (V1/2) [6]: −57.7 ± 0.5 mV | activation of α1/β2/γ2 GABAA receptor (inward currents) [8]: do not activate

— patent publication US20180050994A1 (THE JOHNS HOPKINS UNIVERSITY, priority 2013, published 2018)
